Where two headings read alike, the source gives them in different places. * marks the point of attachment. (CH3(CH2)17)2NCOCH2OCH2CO = CCCCCCCCCCCCCCCCCCN(CCCCCCCCCCCCCCCCCC)C(=O)COCC(=O)*; (C12H25)2NCOCH2CH2CO = CCCCCCCCCCCCN(CCCCCCCCCCCC)C(=O)CCC(=O)*; (C12)2NCOCH2CH2CO = CCCCCCCCCCCCN(CCCCCCCCCCCC)C(=O)CCC(=O)*; OC7 = heptyl ester (C-terminal), CCCCCCCO*; O(CH2)6CH3 = CCCCCCCO*; OC7H15 = CCCCCCCO*

For experiment [1] the following is noted: study of hydraphiles having various chain lengths; cited from earlier work.
The subject of experiment [2] is A. thaliana (Col-0) plant. The class given is in vivo, Arabidopsis thaliana. The settings on record: for Decrease in primary root length: vs PNS. An excerpt: The effect treating a plant with a composition comprising a synthetic amphiphile on root morphology or other physical characteristics or attributes can be quantitated. For example, a change in primary root length can be determined by measuring the difference, if any, in primary root length of a plant treated with the composition compared to the average of a control sample of plants of the same type grown under identical conditions in the absence of the composition. A change in lateral root density can be determined by comparing the lateral root density of a plant treated with the composition to the average lateral root density of a sample grown under identical conditions in the absence of the composition. Lateral root density can be determined by dividing the number of lateral roots by the length of the primary root. In certain embodiments for any quantitated characteristic or attribute, the average value of the control is the average of a statistically significant population of control plants. For example, in certain illustrative embodiments disclosed herein, three trials of about 20 plants each were used to determine the average of the control.
Illustrative of certain embodiments, approximately 60 plants were grown on PNS media (no additives) and root lengths and the number of lateral roots were recorded for each. The data points were averaged to obtain the following baseline values: primary root length=40.4±3.8 mm and number of lateral roots=6.1±0.8, respectively. The lateral root density was obtained by dividing the number of lateral roots by the length (in mm) of the primary root. The control value was (6.1/[…]=) 0.15.
Test compounds were added to the growth medium as 0.2% by volume DMSO. […]
To make 500 mL PN media, 485 mL doubly distilled (“dd”) H2O was first added to an autoclave beaker. The following salts and nutrients were added to a beaker and mixed well: 5 mL of 250 mM of KPO4 (pH 5.5), 2.5 mL of 1M KNO3, 1 mL of 1M MgSO4, 1 mL of 1M Ca(NO3)2, 0.5 mL of Ferric EDTA (1000× or 49 mM) and 0.5 mL of Micronutrients (1000×). In a 1 L autoclaved bottle, 0.6% (3 g) of bacteriological agar was added, followed by 500 mL solution prepared above. The media was autoclaved using the Liquid-30 program.
PNS plates were used for plating sterile Arabidopsis thaliana (Columbia-0) seeds. A sterile stock of PNS agar was maintained. Sterile sucrose was added to PN media to make PNS media. To make PNS media containing 0.5% sucrose, 5 mL of 50% sucrose (sterile filtered) was added to 500 mL of PN agar and mixed well.
The stored PNS media was liquefied using a water bath and allowed to cool to 55° C. The type of plates, compounds, and concentrations to be used were confirmed while the media cooled. The plates were labeled on the cover and the bottom with all the relevant information. 50 mL sterile centrifuge tubes were used to measure 29,940 μL (29.94 mL) PNS media. A fresh sterile 50 mL tube was used for each plate. The desired amount and concentration of compound was added to the PNS media, mixed by inverting the tube and poured in the plate. Total volume of media and compound in each plate was kept constant at 30 mL. A maximum of 60 μL (0.2% by volume) compound was added per plate. For example: 60 μL of 25 mM compound was added to 29.94 mL PNS media to get final concentration of 50 μM compound in PNS media. Plates were incubated at room temperature for 2 hours before plating seeds on them.
Hands and bench area were washed thoroughly before beginning. Sterilizing solution was prepared in a sterile 15 mL centrifuge tube, by mixing 5 mL of 30% bleach and 5 μL of 10% Triton X-100. A. thaliana Col-0 seeds were added to sterile 1.5 mL micro-centrifuge tube. 500 μL of sterilizing solution (30% bleach+0.01% Triton X-100) was added to the seeds, vortexed for 3 seconds and incubated at room temperature for 8 minutes. After 8 minutes, bleach was removed and 1 mL autoclaved MilliQ water was added. […]

Take `c1ccc(CN2CCOCCOCCN(CCCCCCCCN3CCOCCOCCN(CCCCCCCCN4CCOCCOCCN(Cc5ccccc5)CCOCCOCC4)CCOCCOCC3)CCOCCOCC2)cc1` [C8 hydraphile (1)]: the “Sodium cation conduction” value in experiment [1] is on record as “did not conduct sodium cation efficiently”. In addition, the Primary root length in experiment [2] (hydraphile 20 μM in PNS media) is listed as 34 ± 7 mm; in experiment [2] (hydraphile 20 μM in PNS media, listed as C8 benzyl hydraphile (compound 1)) it was 34±7 mm; in experiment [2] (hydraphile 50 μM in PNS media) it was 31 ± 6 mm; in experiment [2] (hydraphile 50 μM in PNS media, listed as C8 benzyl hydraphile (compound 1)), 31±6 mm. In addition, the “Decrease in primary root length” value in experiment [2] (hydraphile 20 μM) amounted to 9%; in experiment [2] (hydraphile 50 μM), 19%. For the same molecule, the Lateral root density is listed as 0.15±0.01 in experiment [2] (hydraphile 20 μM, lateral roots divided by primary root length) and 0.18±0.03 in experiment [2] (hydraphile 50 μM, lateral roots divided by primary root length).

With `c1ccc(CN2CCOCCOCCN(CCCCCCCCCCCCCCCCN3CCOCCOCCN(CCCCCCCCCCCCCCCCN4CCOCCOCCN(Cc5ccccc5)CCOCCOCC4)CCOCCOCC3)CCOCCOCC2)cc1` [C16 hydraphile (3)], the Primary root length in experiment [2] (hydraphile 10 μM in PNS media) is given as 23 ± 0.4 mm; in experiment [2] (hydraphile 10 μM in PNS media, listed as compound 3), 23±0.4 mm; in experiment [2] (hydraphile 20 μM in PNS media), 15 ± 0.5 mm; in experiment [2] (hydraphile 20 μM in PNS media, listed as compound 3), 15±0.5 mm; in experiment [2] (hydraphile 50 μM in PNS media), 4 ± 0.2 mm; in experiment [2] (hydraphile 50 μM in PNS media, listed as compound 3), 4±0.2 mm. The “Decrease in primary root length” value is listed as 39% in experiment [2] (hydraphile 10 μM), 61% in experiment [2] (hydraphile 20 μM) and 90% in experiment [2] (hydraphile 50 μM). In addition, in experiment [2] (hydraphile 50 μM in PNS media), the “Effect on growth / root development” value is “inhibit the primary root development”.

For the molecule “(C12)2NCOCH2CH2CO-AAAPGGG-OC7 ({(C12)2NCOCH2CH2CO}-AAAPGGG-OC7; SMILES CCCCCCCCCCCCN(CCCCCCCCCCCC)C(=O)CCC(=O)N[C@@H](C)C(=O)N[C@@H](C)C(=O)N[C@@H](C)C(=O)N1CCC[C@H]1C(=O)NCC(=O)NCC(=O)NCC(=O)OCCCCCCC) [Compound 10]”, in experiment [2] (SAT 50 μM in PNS), the Lateral root density is given as 0.12, the “Number of lateral roots” value turned out to be 3.4 and the Primary root length is reported as 28.4 mm.

Regarding “(C12H25)2NCOCH2CH2CO-GGGPSGS-OC7H15 ({(C12H25)2NCOCH2CH2CO}-GGGPSGS-OC7H15; SMILES CCCCCCCCCCCCN(CCCCCCCCCCCC)C(=O)CCC(=O)NCC(=O)NCC(=O)NCC(=O)N1CCC[C@H]1C(=O)N[C@@H](CO)C(=O)NCC(=O)N[C@@H](CO)C(=O)OCCCCCCC) [Compound 15]”, in experiment [2] (SAT 50 μM), the “Effect on number of lateral roots relative to control” value is listed as “does not show such a dramatic effect”; the “Effect on primary root length relative to control” value was “dramatic reduction in primary root length”; the “Overall effect on growth / root morphology relative to control” value was “shorter primary root and new lateral roots”. Moreover, in experiment [2] (SAT 50 μM in PNS), the Lateral root density came to 0.51 ± 0.03, the “Number of lateral roots” value was found to be 4.5 ± 0.4 and the Primary root length was determined as 9.0 ± 1.2 mm.

For “[CH3(CH2)17]2NCOCH2OCH2CO-Gly-Gly-Gly-Pro-Gly-Gly-Gly-O(CH2)6CH3 ({(CH3(CH2)17)2NCOCH2OCH2CO}-GGGPGGG-{O(CH2)6CH3}; SMILES CCCCCCCCCCCCCCCCCCN(CCCCCCCCCCCCCCCCCC)C(=O)COCC(=O)NCC(=O)NCC(=O)NCC(=O)N1CCC[C@H]1C(=O)NCC(=O)NCC(=O)NCC(=O)OCCCCCCC) [Compound 9]”, in experiment [2] (SAT 50 μM), the “Effect on number of lateral roots relative to control” value is recorded as “within experimental error of the PNS control” and the “Effect on primary root length relative to control” value is “within experimental error of the PNS control”. In experiment [2] (SAT 50 μM in PNS), the Lateral root density was determined as 0.17 ± 0.02, the “Number of lateral roots” value came to 6.8 ± 1.3 and the Primary root length is 40.5 ± 3.4 mm.

Values taken from patent US10548319B2, “Compositions and methods for synthetic amphiphile-induced changes in plant root morphology” (The Curators of the University of Missouri, priority 2014, dated 2020).
